Key:
Test in all cases: biochemical
Design in all cases: KINOMEscan active-site competition binding panel (468 kinase assays), per cent of control at 1000 nM
Conditions in all cases: KINOMEscan per cent of control (binding competition); read-out: Percent Control
RET = RET (Homo sapiens, UniProt P07949)
Description: (§1) Figure S7 / Percent Control

TYRO3 = TYRO3 (Homo sapiens, UniProt Q06418)
Description: as §1

PAK4 = PAK4 (Homo sapiens, UniProt O96013)
Description: as §1

CDC2L2 = target: T1, CDC2L2 (Homo sapiens, UniProt Q9UQ88)
T1 construct: gene CDK11A
Description: as §1

PCTK3 = target: T2, PCTK3 (Homo sapiens, UniProt Q07002)
T2 construct: gene CDK18
Description: as §1

DAPK1 = DAPK1 (Homo sapiens, UniProt P53355)
Description: as §1

SRMS = SRMS (Homo sapiens, UniProt Q9H3Y6)
Description: as §1

CSNK1D = CSNK1D (Homo sapiens, UniProt P48730)
Description: as §1

GCN2(Kin.Dom.2,S808G) = target: T3, GCN2(Kin.Dom.2,S808G) (Homo sapiens, UniProt Q9P2K8, S808G)
T3 construct: gene EIF2AK4; Kin.Dom.2
Description: as §1

MARK4 = MARK4 (Homo sapiens, UniProt Q96L34)
Description: as §1

FLT3(R834Q) = FLT3(R834Q) (Homo sapiens, UniProt P36888, R834Q)
Description: as §1

PIM2 = PIM2 (Homo sapiens, UniProt Q9P1W9)
Description: as §1

TNK1 = TNK1 (Homo sapiens, UniProt Q13470)
Description: as §1

ACVR1 = ACVR1 (Homo sapiens, UniProt Q04771)
Description: as §1

STK33 = STK33 (Homo sapiens, UniProt Q9BYT3)
Description: as §1

PIK3CA(H1047Y) = PIK3CA(H1047Y) (Homo sapiens, UniProt P42336, H1047Y)
Description: as §1

EGFR(L858R,T790M) = EGFR(L858R,T790M) (Homo sapiens, UniProt P00533, L858R/T790M)
Description: as §1

LOK = target: T4, LOK (Homo sapiens, UniProt O94804)
T4 construct: gene STK10
Description: as §1

BMPR1B = BMPR1B (Homo sapiens, UniProt O00238)
Description: as §1

[1] = target: T5, RPS6KA5(Kin.Dom.1-N-terminal) (Homo sapiens, UniProt O75582)
T5 construct: Kin.Dom.1-N-terminal
Description: as §1

KIT = KIT (Homo sapiens, UniProt P10721)
Description: as §1

PIK3CA(C420R) = PIK3CA(C420R) (Homo sapiens, UniProt P42336, C420R)
Description: as §1

MRCKB = target: T6, MRCKB (Homo sapiens, UniProt Q9Y5S2)
T6 construct: gene CDC42BPB
Description: as §1

WNK3 = WNK3 (Homo sapiens, UniProt Q9BYP7)
Description: as §1

T1 sequence (Q9UQ88 whole entry): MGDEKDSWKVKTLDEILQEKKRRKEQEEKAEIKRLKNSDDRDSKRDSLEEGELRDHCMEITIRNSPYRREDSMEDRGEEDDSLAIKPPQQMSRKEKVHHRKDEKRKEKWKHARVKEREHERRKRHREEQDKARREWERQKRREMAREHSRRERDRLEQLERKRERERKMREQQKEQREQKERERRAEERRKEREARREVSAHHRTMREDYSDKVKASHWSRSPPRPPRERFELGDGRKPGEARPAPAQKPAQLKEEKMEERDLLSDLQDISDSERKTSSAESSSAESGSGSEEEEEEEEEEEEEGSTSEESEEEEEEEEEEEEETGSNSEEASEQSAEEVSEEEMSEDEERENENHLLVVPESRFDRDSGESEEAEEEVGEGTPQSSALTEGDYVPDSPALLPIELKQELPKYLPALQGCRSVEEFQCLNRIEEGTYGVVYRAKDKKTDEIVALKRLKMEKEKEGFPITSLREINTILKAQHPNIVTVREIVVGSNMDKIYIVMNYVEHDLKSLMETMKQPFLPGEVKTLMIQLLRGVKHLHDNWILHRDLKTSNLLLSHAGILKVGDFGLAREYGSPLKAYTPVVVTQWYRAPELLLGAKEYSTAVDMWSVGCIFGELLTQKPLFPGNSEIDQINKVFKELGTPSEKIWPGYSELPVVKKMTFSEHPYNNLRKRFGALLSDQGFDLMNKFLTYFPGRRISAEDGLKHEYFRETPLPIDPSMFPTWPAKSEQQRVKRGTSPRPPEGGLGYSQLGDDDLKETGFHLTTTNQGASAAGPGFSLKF
SRMS, sequence (Q9H3Y6 whole entry): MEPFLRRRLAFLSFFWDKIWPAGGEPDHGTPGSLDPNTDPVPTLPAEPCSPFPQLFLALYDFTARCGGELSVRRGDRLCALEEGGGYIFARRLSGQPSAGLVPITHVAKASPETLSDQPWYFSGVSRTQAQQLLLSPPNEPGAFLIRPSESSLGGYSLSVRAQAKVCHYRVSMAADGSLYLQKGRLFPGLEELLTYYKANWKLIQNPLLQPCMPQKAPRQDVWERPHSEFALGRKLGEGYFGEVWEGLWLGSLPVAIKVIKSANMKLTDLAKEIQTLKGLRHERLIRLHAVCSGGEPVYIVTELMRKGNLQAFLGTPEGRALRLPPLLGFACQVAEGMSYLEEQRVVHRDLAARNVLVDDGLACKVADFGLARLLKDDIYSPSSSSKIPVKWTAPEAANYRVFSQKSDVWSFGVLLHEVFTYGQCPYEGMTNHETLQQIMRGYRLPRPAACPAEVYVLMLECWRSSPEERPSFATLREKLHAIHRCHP
MARK4, sequence (Q96L34 whole entry): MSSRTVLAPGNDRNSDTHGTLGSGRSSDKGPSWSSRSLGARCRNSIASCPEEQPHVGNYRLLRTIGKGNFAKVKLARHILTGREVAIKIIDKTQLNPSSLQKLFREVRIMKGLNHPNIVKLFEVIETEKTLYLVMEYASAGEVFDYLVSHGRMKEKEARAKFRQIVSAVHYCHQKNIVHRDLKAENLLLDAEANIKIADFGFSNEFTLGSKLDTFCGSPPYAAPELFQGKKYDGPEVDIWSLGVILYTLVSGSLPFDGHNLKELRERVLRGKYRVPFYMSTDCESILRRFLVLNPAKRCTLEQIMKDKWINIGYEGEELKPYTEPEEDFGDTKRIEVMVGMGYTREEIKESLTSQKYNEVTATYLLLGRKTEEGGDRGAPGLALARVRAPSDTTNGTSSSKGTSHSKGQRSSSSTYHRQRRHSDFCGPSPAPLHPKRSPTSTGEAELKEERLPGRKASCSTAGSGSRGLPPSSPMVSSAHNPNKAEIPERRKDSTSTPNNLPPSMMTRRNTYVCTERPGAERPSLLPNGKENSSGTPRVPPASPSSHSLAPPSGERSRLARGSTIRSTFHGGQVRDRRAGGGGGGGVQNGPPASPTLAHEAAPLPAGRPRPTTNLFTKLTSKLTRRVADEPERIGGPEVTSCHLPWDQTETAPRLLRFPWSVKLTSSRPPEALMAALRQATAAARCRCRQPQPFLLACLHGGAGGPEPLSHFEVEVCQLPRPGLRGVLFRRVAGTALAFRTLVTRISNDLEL
T5 sequence (O75582 whole entry): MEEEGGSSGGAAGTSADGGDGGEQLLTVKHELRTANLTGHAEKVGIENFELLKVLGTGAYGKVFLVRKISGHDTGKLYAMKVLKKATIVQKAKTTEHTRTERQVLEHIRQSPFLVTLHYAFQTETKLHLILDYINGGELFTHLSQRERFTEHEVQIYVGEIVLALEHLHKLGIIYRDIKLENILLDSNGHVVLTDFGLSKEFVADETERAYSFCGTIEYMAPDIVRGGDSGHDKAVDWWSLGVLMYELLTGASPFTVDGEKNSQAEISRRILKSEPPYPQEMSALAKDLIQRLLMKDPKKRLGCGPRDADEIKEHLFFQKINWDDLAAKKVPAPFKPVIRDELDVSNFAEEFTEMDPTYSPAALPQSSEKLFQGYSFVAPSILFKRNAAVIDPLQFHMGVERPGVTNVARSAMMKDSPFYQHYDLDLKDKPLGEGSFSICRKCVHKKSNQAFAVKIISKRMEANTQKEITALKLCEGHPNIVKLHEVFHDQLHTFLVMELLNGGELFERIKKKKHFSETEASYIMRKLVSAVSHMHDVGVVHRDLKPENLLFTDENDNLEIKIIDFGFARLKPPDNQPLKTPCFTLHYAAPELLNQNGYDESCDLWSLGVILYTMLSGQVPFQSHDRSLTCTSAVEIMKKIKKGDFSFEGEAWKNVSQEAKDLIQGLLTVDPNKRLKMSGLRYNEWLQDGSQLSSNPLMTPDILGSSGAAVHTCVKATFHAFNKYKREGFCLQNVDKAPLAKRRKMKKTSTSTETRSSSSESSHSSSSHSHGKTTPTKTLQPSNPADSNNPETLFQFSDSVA
PIK3CA(C420R), sequence (P42336 whole entry C420R): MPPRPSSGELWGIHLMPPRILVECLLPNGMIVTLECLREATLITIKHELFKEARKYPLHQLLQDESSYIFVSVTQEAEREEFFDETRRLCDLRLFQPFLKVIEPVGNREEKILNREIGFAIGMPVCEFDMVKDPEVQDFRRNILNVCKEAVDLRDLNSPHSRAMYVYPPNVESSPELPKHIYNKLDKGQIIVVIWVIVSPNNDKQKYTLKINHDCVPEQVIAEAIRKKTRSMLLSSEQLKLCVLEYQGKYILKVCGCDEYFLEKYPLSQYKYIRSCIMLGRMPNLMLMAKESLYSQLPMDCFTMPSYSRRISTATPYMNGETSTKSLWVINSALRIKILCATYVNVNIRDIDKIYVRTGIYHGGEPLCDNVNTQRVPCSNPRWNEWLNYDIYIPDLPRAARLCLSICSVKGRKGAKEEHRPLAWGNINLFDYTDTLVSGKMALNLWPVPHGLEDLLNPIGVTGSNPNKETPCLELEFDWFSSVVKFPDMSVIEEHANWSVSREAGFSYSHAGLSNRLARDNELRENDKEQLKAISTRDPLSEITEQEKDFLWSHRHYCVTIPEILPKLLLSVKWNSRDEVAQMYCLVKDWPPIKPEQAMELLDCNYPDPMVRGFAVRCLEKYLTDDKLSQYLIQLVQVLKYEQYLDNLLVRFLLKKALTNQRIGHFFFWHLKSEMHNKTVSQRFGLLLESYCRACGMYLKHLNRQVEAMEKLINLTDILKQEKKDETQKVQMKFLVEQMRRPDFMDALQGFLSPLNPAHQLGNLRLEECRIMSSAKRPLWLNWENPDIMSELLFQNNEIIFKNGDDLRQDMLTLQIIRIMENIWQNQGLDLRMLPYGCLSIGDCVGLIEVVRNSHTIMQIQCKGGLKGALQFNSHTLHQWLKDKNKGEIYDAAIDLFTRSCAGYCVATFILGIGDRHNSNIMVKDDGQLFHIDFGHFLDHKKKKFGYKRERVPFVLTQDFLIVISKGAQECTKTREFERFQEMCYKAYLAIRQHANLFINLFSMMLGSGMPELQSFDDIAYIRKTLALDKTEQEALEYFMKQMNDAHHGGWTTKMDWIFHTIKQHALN
KIT, sequence (P10721 whole entry): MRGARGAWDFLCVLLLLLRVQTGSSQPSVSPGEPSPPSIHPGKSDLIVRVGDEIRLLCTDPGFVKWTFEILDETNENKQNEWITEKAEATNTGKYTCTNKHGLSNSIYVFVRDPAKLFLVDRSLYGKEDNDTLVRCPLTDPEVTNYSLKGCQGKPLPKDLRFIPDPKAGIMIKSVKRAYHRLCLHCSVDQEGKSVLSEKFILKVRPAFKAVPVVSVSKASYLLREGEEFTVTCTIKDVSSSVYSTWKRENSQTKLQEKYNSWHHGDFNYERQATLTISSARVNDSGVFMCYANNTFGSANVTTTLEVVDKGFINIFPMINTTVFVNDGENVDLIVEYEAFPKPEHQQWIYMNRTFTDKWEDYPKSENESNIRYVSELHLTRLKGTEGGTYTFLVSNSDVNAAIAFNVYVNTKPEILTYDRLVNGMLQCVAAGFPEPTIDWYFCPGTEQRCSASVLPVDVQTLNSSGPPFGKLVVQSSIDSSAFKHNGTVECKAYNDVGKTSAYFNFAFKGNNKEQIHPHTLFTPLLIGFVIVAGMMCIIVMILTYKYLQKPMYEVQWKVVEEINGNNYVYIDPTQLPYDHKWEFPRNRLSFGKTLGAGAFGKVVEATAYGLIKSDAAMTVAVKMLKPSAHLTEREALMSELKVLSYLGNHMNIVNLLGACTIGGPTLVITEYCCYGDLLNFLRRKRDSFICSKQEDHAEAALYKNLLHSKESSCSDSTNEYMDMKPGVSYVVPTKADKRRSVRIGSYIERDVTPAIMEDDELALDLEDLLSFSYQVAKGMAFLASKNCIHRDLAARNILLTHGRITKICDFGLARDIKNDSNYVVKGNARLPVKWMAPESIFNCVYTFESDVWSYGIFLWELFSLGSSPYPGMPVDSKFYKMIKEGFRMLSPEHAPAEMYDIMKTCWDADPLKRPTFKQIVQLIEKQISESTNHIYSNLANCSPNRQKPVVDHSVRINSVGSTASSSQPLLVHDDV
PIK3CA(H1047Y), sequence (P42336 whole entry H1047Y): as the sequence (P42336 whole entry C420R) above, with R420C, H1047Y counted along it

Question: Which results are given for Cn1c(=O)[nH]c2ccc(-c3cccc(C(=O)NC4CCn5ccnc5C4)c3)cc21 (stereo not drawn) [Z36-MP5]?
Answer: remaining binding at 1 µM (RET): 67%; remaining binding at 1 µM (TYRO3): 100%; remaining binding at 1 µM (PAK4): 41%; remaining binding at 1 µM (CDC2L2): 99%; remaining binding at 1 µM (PCTK3): 86%; remaining binding at 1 µM (DAPK1): 99%; remaining binding at 1 µM (SRMS): 89%; remaining binding at 1 µM (CSNK1D): 98%; remaining binding at 1 µM (GCN2(Kin.Dom.2,S808G)): 94%; remaining binding at 1 µM (MARK4): 95%; remaining binding at 1 µM (FLT3(R834Q)): 40%; remaining binding at 1 µM (PIM2): 91%; remaining binding at 1 µM (TNK1): 77%; remaining binding at 1 µM (ACVR1): 47%; remaining binding at 1 µM (STK33): 92%; remaining binding at 1 µM (PIK3CA(H1047Y)): 91%; remaining binding at 1 µM (EGFR(L858R,T790M)): 39%; remaining binding at 1 µM (LOK): 90%; remaining binding at 1 µM (BMPR1B): 55%; remaining binding at 1 µM [1]: 75%; remaining binding at 1 µM (KIT): 95%; remaining binding at 1 µM (PIK3CA(C420R)): 91%; remaining binding at 1 µM (MRCKB): 92%; remaining binding at 1 µM (WNK3): 69%

Source: PMC10924921, “Mi-2β promotes immune evasion in melanoma by activating EZH2 methylation” (Nature Communications, 2024)
